We go through 14 compounds from ChEMBL document CHEMBL1201862, “PubChem BioAssay data set” (2004).

As a reminder, the AC50 is the concentration giving half of the maximal activity seen. The IC50 is the concentration that gives 50% inhibition. The EC50 is the midpoint of the concentration-response curve.

Series [1] deals with T1, Cytochrome P450 2C9 (Homo sapiens, UniProt P11712).
Series [2] has as its target T1, Cytochrome P450 2C9. This is another data set of the same source.
The target of a further series is T2, Cytochrome P450 1A2 (Homo sapiens, UniProt P05177).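 Note: PubChem cytochrome P450 panel assay, CYP1A2 panel member.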
T2 sequence (P05177 whole entry): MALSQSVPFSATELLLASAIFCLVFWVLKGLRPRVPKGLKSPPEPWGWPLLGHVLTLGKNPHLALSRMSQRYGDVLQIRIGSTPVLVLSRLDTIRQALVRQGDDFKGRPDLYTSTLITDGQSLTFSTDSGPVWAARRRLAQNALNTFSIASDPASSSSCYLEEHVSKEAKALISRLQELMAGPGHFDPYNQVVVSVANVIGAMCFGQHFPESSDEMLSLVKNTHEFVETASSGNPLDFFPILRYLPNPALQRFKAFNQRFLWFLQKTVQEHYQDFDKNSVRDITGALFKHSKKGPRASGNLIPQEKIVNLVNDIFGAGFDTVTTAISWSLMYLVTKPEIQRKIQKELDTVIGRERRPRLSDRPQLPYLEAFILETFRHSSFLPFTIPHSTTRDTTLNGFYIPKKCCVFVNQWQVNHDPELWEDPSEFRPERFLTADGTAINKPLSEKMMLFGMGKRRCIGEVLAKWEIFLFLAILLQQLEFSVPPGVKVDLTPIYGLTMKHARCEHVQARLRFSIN

The target in series [3] is T3, Rac GTPase-activating protein 1 (Homo sapiens, UniProt Q9H0H5).
T3 sequence (Q9H0H5 whole entry): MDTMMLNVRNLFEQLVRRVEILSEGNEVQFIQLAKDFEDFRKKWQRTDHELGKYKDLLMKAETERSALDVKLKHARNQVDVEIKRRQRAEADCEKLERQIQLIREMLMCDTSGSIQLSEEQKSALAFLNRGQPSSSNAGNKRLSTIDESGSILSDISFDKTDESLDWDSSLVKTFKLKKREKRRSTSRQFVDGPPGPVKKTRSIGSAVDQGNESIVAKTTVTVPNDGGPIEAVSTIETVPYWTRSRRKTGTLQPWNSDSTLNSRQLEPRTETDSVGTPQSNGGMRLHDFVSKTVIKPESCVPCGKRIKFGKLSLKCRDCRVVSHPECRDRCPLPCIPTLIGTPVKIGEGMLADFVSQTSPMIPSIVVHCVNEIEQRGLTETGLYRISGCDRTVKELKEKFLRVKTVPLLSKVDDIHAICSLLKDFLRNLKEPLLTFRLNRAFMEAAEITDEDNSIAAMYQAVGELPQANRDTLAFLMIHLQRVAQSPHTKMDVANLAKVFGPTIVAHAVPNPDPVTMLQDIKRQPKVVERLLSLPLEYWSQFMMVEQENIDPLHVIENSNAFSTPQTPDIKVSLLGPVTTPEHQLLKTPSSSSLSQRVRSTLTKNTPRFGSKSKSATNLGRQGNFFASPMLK
As to the kind of experiment: blockers of MgcRacGAP-driven Rac1 GTP hydrolysis – biochemical, ADP Hunter fluorescence, primary and confirmatory, confirmation (AID 624330). Type of series: functional.

For another series, the target named is Cytochrome P450 2D6 (Homo sapiens, UniProt P10635).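 Note: CYP2D6 member of a cytochrome P450 panel assay.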
Chain of Cytochrome P450 2D6 (P10635 whole entry): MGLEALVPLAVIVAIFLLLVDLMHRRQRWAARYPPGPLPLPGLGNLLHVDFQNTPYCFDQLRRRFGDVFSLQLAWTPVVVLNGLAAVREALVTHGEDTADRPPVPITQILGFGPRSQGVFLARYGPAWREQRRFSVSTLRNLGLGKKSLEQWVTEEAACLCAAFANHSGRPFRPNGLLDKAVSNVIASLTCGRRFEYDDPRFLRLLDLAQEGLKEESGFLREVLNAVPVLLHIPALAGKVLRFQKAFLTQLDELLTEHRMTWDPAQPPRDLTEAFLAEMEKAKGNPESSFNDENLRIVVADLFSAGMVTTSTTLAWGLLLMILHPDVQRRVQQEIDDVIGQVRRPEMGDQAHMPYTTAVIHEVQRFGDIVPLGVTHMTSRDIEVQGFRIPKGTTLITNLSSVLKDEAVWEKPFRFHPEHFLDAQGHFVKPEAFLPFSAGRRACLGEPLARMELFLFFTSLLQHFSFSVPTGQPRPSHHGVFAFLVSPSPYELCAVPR
In another series the target is T4, Protein RecA (Mycobacterium tuberculosis, UniProt P9WHJ3).
T4 sequence (P9WHJ3 whole entry): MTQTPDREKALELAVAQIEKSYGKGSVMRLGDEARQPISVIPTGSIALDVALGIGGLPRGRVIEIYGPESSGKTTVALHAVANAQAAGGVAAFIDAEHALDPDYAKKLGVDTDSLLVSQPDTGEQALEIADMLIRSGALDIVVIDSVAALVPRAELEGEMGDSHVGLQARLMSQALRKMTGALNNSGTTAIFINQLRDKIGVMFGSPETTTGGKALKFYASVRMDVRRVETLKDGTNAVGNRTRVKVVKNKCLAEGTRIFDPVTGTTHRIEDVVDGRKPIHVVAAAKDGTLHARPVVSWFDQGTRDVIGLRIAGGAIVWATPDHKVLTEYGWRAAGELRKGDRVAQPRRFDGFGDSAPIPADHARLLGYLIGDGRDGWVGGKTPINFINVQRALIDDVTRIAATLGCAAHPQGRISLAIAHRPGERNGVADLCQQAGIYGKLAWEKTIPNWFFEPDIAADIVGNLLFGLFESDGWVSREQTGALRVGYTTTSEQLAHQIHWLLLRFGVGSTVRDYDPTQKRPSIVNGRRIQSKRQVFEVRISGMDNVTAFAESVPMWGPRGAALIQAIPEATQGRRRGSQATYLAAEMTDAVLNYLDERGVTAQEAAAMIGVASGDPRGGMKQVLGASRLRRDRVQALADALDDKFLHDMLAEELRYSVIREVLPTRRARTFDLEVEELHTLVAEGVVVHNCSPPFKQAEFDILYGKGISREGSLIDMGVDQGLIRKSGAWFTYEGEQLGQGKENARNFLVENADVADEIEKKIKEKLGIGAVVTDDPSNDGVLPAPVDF
As to the kind of experiment: Fluorescence Cell-Free Homogeneous Dose Retest to Identify Inhibitors of RecA-Intein Splicing Activity. [Related pubchem assays (depositor defined):AID2097, AID2223, AID489010, AID492950]. The series is classed as functional.

For series [4], the target named is T5, Replicative DNA helicase DnaB (Mycobacterium tuberculosis, UniProt P9WMR3).
T5 sequence (P9WMR3 whole entry): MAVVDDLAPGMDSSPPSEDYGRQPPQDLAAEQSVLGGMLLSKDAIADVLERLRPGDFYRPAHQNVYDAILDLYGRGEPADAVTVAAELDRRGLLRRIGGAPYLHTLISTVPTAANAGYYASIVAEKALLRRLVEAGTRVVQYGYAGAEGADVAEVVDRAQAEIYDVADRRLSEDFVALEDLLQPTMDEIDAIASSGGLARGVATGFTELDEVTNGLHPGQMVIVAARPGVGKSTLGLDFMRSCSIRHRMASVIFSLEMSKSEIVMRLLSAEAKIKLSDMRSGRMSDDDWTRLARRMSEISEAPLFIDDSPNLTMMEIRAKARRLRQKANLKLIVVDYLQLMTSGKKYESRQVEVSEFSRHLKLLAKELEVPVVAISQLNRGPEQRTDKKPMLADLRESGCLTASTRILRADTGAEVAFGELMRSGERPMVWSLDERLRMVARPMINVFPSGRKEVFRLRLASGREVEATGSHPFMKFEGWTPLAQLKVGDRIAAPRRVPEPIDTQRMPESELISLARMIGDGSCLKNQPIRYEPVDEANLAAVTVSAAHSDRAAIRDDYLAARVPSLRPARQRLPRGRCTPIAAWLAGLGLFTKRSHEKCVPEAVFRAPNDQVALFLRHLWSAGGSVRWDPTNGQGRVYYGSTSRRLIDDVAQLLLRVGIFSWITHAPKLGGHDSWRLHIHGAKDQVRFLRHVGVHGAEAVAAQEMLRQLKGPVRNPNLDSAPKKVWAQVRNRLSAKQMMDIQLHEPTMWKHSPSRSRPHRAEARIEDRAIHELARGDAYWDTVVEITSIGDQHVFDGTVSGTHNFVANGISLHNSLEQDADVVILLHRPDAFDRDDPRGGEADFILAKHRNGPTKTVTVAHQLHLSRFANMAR
Briefly: DnaB intein splicing inhibitors, dose response, biochemical, cell-free fluorescence (AID 449749). The series is classed as functional.

In another series the target is Genome polyprotein (dengue virus type 2, UniProt P29990). Briefly: flavivirus cap methylation enzyme inhibition – biochemical, confirmation dose response, primary screen (AID 588689). Type of series: functional.
Chain of Genome polyprotein (P29990 2492-3391 limits assumed): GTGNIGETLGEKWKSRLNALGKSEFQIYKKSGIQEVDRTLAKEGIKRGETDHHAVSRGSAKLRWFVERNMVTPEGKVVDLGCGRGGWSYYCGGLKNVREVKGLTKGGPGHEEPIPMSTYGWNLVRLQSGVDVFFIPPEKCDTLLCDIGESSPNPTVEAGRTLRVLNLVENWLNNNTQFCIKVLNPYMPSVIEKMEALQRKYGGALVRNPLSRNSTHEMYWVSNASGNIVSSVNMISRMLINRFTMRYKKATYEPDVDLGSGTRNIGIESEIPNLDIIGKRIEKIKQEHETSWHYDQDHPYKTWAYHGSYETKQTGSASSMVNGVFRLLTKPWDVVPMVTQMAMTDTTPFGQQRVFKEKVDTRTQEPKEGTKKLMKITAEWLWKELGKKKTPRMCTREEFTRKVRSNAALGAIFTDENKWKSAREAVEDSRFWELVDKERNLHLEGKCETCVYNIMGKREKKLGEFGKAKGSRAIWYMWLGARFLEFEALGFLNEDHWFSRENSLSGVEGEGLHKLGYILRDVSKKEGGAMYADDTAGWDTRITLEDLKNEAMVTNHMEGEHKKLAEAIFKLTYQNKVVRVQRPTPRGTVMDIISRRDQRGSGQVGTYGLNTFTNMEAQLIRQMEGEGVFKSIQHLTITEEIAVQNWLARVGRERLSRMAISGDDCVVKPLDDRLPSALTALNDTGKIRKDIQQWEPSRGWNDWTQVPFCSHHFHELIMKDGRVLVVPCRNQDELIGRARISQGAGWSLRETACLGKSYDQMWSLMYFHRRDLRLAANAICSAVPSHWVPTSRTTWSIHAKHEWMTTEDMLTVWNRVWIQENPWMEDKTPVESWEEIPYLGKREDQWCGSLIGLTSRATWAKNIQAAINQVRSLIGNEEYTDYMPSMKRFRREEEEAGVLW
In another series the target is Cytochrome P450 3A4 (Homo sapiens, UniProt P08684).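 Note: CYP3A4 tested as one member of a cytochrome P450 panel screen.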
Chain of Cytochrome P450 3A4 (P08684 whole entry): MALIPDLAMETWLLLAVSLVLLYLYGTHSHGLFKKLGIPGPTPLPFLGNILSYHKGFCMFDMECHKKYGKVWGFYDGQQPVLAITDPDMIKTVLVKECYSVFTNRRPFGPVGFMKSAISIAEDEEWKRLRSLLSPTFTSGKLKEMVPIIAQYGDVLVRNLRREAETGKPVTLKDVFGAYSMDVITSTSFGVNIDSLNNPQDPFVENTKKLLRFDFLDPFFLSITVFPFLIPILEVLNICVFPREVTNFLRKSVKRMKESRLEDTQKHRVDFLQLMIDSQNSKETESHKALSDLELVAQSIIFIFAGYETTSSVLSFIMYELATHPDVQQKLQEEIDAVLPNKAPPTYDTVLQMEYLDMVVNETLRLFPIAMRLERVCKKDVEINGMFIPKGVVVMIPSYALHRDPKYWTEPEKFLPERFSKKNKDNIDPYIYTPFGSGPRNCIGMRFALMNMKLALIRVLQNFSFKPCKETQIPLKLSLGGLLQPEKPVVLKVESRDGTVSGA
Another series has as its target T6, Aminopeptidase N (Plasmodium falciparum FcB1/Columbia, UniProt O96935).
T6 sequence (O96935 whole entry): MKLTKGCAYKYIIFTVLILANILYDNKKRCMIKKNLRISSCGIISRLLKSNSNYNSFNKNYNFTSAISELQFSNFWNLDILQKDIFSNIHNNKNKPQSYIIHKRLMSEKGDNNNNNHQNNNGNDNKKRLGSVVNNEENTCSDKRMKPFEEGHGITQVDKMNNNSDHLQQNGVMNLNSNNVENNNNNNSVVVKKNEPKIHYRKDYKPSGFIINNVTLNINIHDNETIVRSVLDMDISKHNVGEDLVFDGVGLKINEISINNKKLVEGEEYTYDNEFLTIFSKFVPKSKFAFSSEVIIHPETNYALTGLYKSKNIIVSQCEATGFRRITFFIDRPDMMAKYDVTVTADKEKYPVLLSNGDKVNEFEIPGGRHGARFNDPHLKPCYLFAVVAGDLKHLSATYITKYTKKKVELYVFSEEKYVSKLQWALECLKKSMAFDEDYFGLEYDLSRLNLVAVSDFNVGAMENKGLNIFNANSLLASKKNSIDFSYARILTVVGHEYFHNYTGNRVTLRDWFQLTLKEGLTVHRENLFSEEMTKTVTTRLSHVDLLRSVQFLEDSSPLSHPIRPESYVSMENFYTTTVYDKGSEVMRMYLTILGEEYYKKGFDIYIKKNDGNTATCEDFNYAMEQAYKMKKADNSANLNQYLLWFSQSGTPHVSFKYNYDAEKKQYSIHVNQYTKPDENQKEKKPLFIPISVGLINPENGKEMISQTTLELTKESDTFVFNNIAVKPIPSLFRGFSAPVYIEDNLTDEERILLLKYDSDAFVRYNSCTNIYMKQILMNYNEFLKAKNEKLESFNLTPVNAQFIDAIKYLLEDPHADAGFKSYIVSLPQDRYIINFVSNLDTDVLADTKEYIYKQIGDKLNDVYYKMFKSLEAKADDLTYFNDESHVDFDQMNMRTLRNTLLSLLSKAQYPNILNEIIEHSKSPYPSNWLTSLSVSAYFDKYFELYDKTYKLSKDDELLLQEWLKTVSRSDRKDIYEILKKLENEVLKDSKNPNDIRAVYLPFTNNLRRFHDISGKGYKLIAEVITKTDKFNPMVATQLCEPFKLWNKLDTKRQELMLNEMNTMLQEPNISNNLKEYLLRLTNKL
Briefly: malaria alanyl aminopeptidase activity blockers – biochemical, fluorogenic H-Leu-NHMec substrate, 1536-well (AID 1445). Further details: species or system Plasmodium falciparum 3D7, 3D7.

In another series the target is Cytochrome P450 2C19 (Homo sapiens, UniProt P33261). Briefly: Cytochrome panel assay with activity outcomes. Panel member name: p450-cyp2c19 Compounds with AC50 equal or less than 10 uM are considered active. The series is classed as functional. The conditions noted are these: read-out: AC50.
Chain of Cytochrome P450 2C19 (P33261 whole entry): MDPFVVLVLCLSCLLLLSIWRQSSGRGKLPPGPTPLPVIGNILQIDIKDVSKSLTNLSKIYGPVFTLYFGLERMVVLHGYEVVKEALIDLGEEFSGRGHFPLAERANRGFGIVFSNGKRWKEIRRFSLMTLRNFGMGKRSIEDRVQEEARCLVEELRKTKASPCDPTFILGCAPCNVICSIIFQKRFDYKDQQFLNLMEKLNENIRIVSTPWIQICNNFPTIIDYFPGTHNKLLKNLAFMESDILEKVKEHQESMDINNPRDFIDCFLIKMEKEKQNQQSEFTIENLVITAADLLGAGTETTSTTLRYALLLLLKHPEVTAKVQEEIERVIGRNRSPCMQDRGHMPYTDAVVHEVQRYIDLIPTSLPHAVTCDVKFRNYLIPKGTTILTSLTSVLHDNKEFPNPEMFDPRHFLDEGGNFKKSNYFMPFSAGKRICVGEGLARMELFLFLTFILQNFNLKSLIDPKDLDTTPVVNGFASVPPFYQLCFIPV

SMILES strings stand for the structures. Calls of active or inactive are those of the source.

T1 sequence (P11712 whole entry): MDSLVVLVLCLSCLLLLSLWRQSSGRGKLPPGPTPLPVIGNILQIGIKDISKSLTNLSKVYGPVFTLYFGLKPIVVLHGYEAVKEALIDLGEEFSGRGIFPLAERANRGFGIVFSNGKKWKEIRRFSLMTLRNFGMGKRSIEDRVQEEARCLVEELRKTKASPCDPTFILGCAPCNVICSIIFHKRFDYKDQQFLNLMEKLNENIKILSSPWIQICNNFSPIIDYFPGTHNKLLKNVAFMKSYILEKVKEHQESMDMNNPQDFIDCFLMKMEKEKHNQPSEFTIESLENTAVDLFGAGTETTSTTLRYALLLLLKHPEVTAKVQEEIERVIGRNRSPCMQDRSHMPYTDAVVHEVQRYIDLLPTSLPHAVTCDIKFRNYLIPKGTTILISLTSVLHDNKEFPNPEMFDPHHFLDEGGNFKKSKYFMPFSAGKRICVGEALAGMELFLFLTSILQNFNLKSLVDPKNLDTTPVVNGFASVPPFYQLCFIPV

On to `N=C(N)NC(=O)Cc1c(Cl)cccc1Cl` [GUANFACINE], for which the concentration at half-maximal activity (AC50) on Cytochrome P450 2C9 [1] was 31.6 µM (inconclusive); at Cytochrome P450 2C9 [2], “inconclusive”.

On to `CCOc1ccc(NC(=O)CCNS(=O)(=O)c2ccc3c(c2)c(=O)n(C)c(=O)n3C)cc1`, for which the AC50 on Cytochrome P450 1A2 is 2.51 µM (inconclusive); at Cytochrome P450 2C9 [2], “inconclusive”.

On to `Cc1c(NC(=S)N/N=C/c2ccc(O)cc2)c(=O)n(-c2ccccc2)n1C`, for which the half-inhibitory concentration (IC50) in series [3] was 55.6 µM (active). On Cytochrome P450 2C9 [2], the AC50 entry is given as “inconclusive”.

As to `CC(C)(C)NC(=O)C(Cc1ccccc1)NS(=O)(=O)c1ccc2c(c1)CCC(=O)N2` (stereo not drawn), the results for the concentration at half-maximal activity (AC50) at Cytochrome P450 2D6 and on Cytochrome P450 2C9 [2] were 12.6 µM (inconclusive) and “inconclusive”, respectively.

Regarding `Cc1nc(S(=O)(=O)c2cccc(Cl)c2)nc2c1CCC2`, the figures for the AC50 at Cytochrome P450 1A2 and at Cytochrome P450 2C9 [2] were 12.6 µM (inconclusive) and “inconclusive”, respectively.

As for `CC1=NN(c2ccccc2)C(=O)/C1=C/c1cccc(C)c1`, at Protein RecA, the EC50 is 1.58 µM (active). Moreover, in [4], the AC50 was 3.59 µM (active). Besides, at Genome polyprotein, the IC50 is 50.5 µM (active).

With `O=C(N/N=C1\CCCc2ccccc21)c1ccc([N+](=O)[O-])cc1Cl`, the half-maximal activity concentration (AC50) entry at Cytochrome P450 2C9 [2] is given as “inconclusive”.

As to `CN1[C@@H]2CC[C@H]1CC(O[C@@H](c1ccccc1)c1ccccc1N)C2` (stereo partly drawn), the concentration at half-maximal activity (AC50) on Cytochrome P450 1A2 is 15.8 µM (inconclusive); on Cytochrome P450 2D6, 25.1 µM (inconclusive); at Cytochrome P450 3A4, 12.6 µM (inconclusive); at Cytochrome P450 2C9 [2] it was “inconclusive”.

Regarding `Cc1ccc(S(=O)(=O)NN2C(=O)/C(=C/c3cccs3)SC2=S)cc1`, the IC50 at Aminopeptidase N was 30.9 µM (active); at Genome polyprotein, 35.3 µM (active).

For the compound `CCOC(=O)COc1ccc(Br)cc1/C=C\c1nc(O)nc(O)c1[N+](=O)[O-]`, the IC50 at Aminopeptidase N is 36.5 µM (active).

In the case of `Cc1cc(C)cc(OCC(=O)Nc2ccc3c4c(cccc24)CC3)c1`, the concentration at half-maximal activity (AC50) at Cytochrome P450 2C19 was 11.2 µM (inconclusive); on Cytochrome P450 1A2 it was 2.51 µM (inconclusive); on Cytochrome P450 2C9 [2], “inconclusive”.

With `O=C(Nn1c(-c2ccccc2)nc2ccccc2c1=O)c1cccs1`, the 50% inhibitory concentration (IC50) at Aminopeptidase N was 51.1 µM (active).

Regarding `COC(=O)c1ccccc1NC(=O)c1ccc(COc2ccc(C)c(C)c2)o1`, the concentration at half-maximal activity (AC50) is 1.41 µM (inconclusive) on Cytochrome P450 3A4 and “inconclusive” at Cytochrome P450 2C9 [2].

As to `COc1ccc2cc(C#N)c(SCC(=O)N3CCCC3)nc2c1`, the IC50 on Aminopeptidase N is 55.7 µM (active).
